The values below come from US20100267706A1, “Compounds, Compositions and Methods Comprising Pyridazine Derivatives” (Institute for OneWorld Health, priority 2009, published 2010).

T1 sequence (P13569 whole entry): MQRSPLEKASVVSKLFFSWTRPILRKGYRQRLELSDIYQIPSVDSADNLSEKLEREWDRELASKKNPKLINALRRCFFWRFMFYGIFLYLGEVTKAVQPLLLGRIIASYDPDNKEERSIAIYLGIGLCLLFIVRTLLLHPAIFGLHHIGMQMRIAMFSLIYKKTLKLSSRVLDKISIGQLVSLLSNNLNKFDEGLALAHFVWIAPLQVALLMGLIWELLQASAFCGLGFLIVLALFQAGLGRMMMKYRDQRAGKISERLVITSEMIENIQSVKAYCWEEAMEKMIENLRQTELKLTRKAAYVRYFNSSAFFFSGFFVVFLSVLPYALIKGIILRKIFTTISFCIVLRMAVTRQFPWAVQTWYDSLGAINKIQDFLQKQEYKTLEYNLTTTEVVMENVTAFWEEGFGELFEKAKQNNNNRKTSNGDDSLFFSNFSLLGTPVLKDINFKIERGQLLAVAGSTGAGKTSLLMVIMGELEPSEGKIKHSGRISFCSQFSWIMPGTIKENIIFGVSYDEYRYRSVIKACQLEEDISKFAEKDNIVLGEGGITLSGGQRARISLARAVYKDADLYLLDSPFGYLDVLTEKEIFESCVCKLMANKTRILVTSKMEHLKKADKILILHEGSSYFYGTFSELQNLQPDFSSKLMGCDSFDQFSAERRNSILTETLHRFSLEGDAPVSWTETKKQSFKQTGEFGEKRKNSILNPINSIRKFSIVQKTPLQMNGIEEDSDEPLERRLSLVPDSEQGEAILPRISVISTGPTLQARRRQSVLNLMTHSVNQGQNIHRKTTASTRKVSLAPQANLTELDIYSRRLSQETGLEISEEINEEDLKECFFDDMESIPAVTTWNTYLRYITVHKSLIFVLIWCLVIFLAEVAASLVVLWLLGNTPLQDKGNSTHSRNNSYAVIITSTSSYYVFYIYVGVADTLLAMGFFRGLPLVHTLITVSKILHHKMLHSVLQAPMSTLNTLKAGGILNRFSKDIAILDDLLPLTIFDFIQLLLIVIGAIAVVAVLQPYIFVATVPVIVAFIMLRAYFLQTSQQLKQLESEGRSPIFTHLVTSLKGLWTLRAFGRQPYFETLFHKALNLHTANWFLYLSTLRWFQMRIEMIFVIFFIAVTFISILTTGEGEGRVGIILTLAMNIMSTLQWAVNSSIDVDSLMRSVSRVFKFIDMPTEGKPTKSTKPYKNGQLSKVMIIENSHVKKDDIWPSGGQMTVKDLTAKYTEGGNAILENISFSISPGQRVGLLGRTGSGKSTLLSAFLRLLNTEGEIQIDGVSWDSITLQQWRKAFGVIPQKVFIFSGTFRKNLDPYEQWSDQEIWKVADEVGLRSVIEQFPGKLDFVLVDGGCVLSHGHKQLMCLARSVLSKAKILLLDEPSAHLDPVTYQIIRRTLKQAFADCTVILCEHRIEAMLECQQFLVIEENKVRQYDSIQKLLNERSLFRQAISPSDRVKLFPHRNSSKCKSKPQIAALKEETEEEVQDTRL

The assay addresses T1, CFTR (Homo sapiens, UniProt P13569).
T1 construct: host or cells: Human colonic T84 cells
Kind of assay: T84 assay (FLIPR membrane potential, forskolin/IBMX-stimulated CFTR channel activity). Type of assay: cell-based. The following applies: Human colonic T84 cells; average of at least 2 runs unless annotated n = 1. The protocol: (§1) For example, Human colonic T84 cells can be acquired from the European Collection of Cell Cultures (ECACC) and grown in standard culture conditions as described by the supplier. On the day before assay 25,000 T84 cells per well are plated into standard black walled, clear bottom 384-well assay plates in standard growth medium consisting of DMEM:F12 with 10% FBS and incubated overnight. On the day of the assay the plates are washed using a standard assay buffer (HBSS with 10 mM Hepes) and incubated for 15 minutes in serum free cell culture medium before the addition of a commercially available membrane potential sensitive fluorescent dye (FLIPR Red membrane potential dye, Molecular Devices Corporation). T84 cells are incubated with the FLIPR Red membrane potential dye for 45 minutes in the presence and absence of test compound before being transferred to a commercially available fluorescence imaging plate reader (FLIPR384, Molecular Devices Corporation). Fluorescence levels are monitored continuously every second for 150 seconds; after an initial 10 second baseline, CFTR channel activity is stimulated through the addition of 10 μM forskolin in the presence of 100 μM of the phosphodiesterase inhibitor iso-butyl-methylxanthine (IBMX). Addition of the forskolin leads to the activation of intracellular adenylyl cylase 1, elevating cAMP levels and results in the phosphorylation and opening of CFTR anion channels. CFTR channel opening causes chloride ion efflux and subsequent depolarization of the cells, which is measured by an increase in fluorescence. CFTR inhibitor compounds prevent cell depolarization and the associated increase in fluorescence.
as §1, with “Human colonic” for “For example, Human colonic”, “T84 cells are acquired from” for “T84 cells can be acquired from”, “(ECACC) and are grown in” for “(ECACC) and grown in”
`CN(C)CCCOc1ccccc1CN1CCN(c2cc(-c3cc(Cl)c(O)c(Cl)c3)nnc2OCCc2ccc(Cl)cc2)CC1` [Compound 17, 2,6-dichloro-4-(6-(4-chlorophenethoxy)-5-(4-(2-(3-(dimethylamino)propoxy)benzyl)piperazin-1-yl)pyridazin-3-yl)phenol] yielded an IC50 of 3.8 µM.
In the case of `CS(=O)(=O)Nc1ccc(CNC(=O)c2cc(-c3cc(Cl)c(O)c(Cl)c3)nnc2OCCc2ccc(Cl)cc2)cc1` [Compound 4, 3-(4-Chlorophenethoxy)-6-(3,5-dichloro-4-hydroxyphenyl)-N-(4-(methylsulfonamido)benzyl)pyridazine-4-carboxamide], the 50% inhibitory concentration (IC50) was determined as 17.5 µM.
Turning to `O=C(NCc1cc(F)c(F)c(F)c1)c1cc(-c2cc(Cl)c(O)c(Cl)c2)nnc1OCCc1ccc(Cl)cc1` [Compound 9, 3-(4-chlorophenethoxy)-6-(3,5-dichloro-4-hydroxyphenyl)-N-(3,4,5-trifluorobenzyl)pyridazine-4-carboxamide], the 50% inhibitory concentration (IC50) is 8.06 µM.
The compound `O=C(c1cc(-c2cc(Cl)c(O)c(Cl)c2)nnc1OCCc1ccc(Cl)cc1)N(CCO)Cc1ccccc1Cl` [Compound 12, N-(2-chlorobenzyl)-3-(4-chlorophenethoxy)-6-(3,5-dichloro-4-hydroxyphenyl)-N-(2-hydroxyethyl)pyridazine-4-carboxamide] had an IC50 of 10.3 µM.
As for `CN(C)CCCOc1cccc(CN2CCN(c3cc(-c4cc(Cl)c(O)c(Cl)c4)nnc3OCCc3ccc(Cl)cc3)CC2)c1` [Compound 16, 2,6-dichloro-4-(6-(4-chlorophenethoxy)-5-(4-(3-(3-(dimethylamino)propoxy)benzyl)piperazin-1-yl)pyridazin-3-yl)phenol], the figure is 9.85 µM.
The compound `Oc1c(Cl)cc(-c2cc(N3CCN(Cc4cccc(C(F)(F)F)c4)CC3)c(OCCc3ccc(Cl)cc3)nn2)cc1Cl` [Compound 1, 2,6-dichloro-4-(6-(4-chlorophenethoxy)-5-(4-(3-(trifluoromethyl)benzyl)piperazin-1-yl)pyridazin-3-yl)phenol] returned a 50% inhibitory concentration (IC50) of 27 µM.
With `COCCN(Cc1ccccc1)C(=O)c1cc(-c2cc(Cl)c(O)c(Cl)c2)nnc1OCCc1ccc(Cl)cc1` [Compound 29, N-benzyl-3-(4-chlorophenethoxy)-6-(3,5-dichloro-4-hydroxyphenyl)-N-(2-methoxyethyl)pyridazine-4-carboxamide], the IC50 turned out to be 8.5 µM.
In turn, `CCCN(CCO)C(=O)c1cc(-c2cc(Cl)c(O)c(Cl)c2)nnc1OCCc1ccc(Cl)cc1` [Compound 13, 3-(4-chlorophenethoxy)-6-(3,5-dichloro-4-hydroxyphenyl)-N-(2-hydroxyethyl)-N-propylpyridazine-4-carboxamide] displayed an IC50 of 28.6 µM. This IC50 is about 3.4-fold higher than that of the compound before.
`CC(C)(C)c1ccc(CNC(=O)c2cc(-c3cc(Cl)c(O)c(Cl)c3)nnc2OCCc2ccc(Cl)cc2)cc1` [Compound 34, N-(4-tert-butylbenzyl)-3-(4-chlorophenethoxy)-6-(3,5-dichloro-4-hydroxyphenyl)pyridazine-4-carboxamide] showed an IC50 of 20.1 µM.
As for `O=C(c1cc(-c2cc(Cl)c(O)c(Cl)c2)nnc1OCCc1ccc(Cl)cc1)N(Cc1ccccc1)CC(F)(F)F` [Compound 26, N-benzyl-3-(4-chlorophenethoxy)-6-(3,5-dichloro-4-hydroxyphenyl)-N-(2,2,2-trifluoroethyl)pyridazine-4-carboxamide], the figure is 23.5 µM.
On to `CN1CCN(CCOc2ccc(CN3CCN(c4cc(-c5cc(Cl)c(O)c(Cl)c5)nnc4OCCc4ccc(Cl)cc4)CC3)cc2)CC1` [Compound 22, 2,6-dichloro-4-(6-(4-chlorophenethoxy)-5-(4-(4-(2-(4-methylpiperazin-1-yl)ethoxy)benzyl)piperazin-1-yl)pyridazin-3-yl)phenol], for which the half-maximal inhibitory concentration (IC50) is 13.2 µM.
As for `COc1cc(CN2CCN(c3cc(-c4cc(Cl)c(O)c(Cl)c4)nnc3OCCc3ccc(Cl)cc3)CC2)ccc1OCCN1CCN(C)CC1` [Compound 23, 2,6-dichloro-4-(6-(4-chlorophenethoxy)-5-(4-(3-methoxy-4-(2-(4-methylpiperazin-1-yl)ethoxy)benzyl)piperazin-1-yl)pyridazin-3-yl)phenol], the figure is 2.33 µM.
As for `CN(C)CCCOc1ccc(CN2CCN(c3cc(-c4cc(Cl)c(O)c(Cl)c4)nnc3OCCc3ccc(Cl)cc3)CC2)cc1` [Compound 2, 2,6-Dichloro-4-(6-(4-chlorophenethoxy)-5-(4-(4-(3-(dimethylamino)propoxy)benzyl)piperazin-1-yl)pyridazin-3-yl)phenol], the figure is 1.8 µM; as for `CCN(Cc1ccccc1)C(=O)c1cc(-c2cc(Cl)c(O)c(Cl)c2)nnc1N(CC)Cc1ccccc1` [Compound 20, N-benzyl-3-(benzyl(ethyl)amino)-6-(3,5-dichloro-4-hydroxyphenyl)-N-ethylpyridazine-4-carboxamide], 12 µM.
As for `O=C(NCc1cccc(C(F)(F)F)c1)c1cc(-c2cc(Cl)c(O)c(Cl)c2)nnc1OCCc1ccc(Cl)cc1` [Compound 6, 3-(4-chlorophenethoxy)-6-(3,5-dichloro-4-hydroxyphenyl)-N-(3-(trifluoromethyl)benzyl)pyridazine-4-carboxamide], the figure is 24.7 µM.
`CCN(Cc1ccccc1)C(=O)c1cc(-c2cc(Cl)c(O)c(Cl)c2)nnc1OCCc1ccc(Cl)cc1` [Compound 27, N-benzyl-3-(4-chlorophenethoxy)-6-(3,5-dichloro-4-hydroxyphenyl)-N-ethylpyridazine-4-carboxamide] gave an IC50 of 17 µM.
Take `O=C(c1cc(-c2cc(Cl)c(O)c(Cl)c2)nnc1OCCc1ccc(Cl)cc1)N(CCO)Cc1ccccn1` [Compound 25, 3-(4-chlorophenethoxy)-6-(3,5-dichloro-4-hydroxyphenyl)-N-(2-hydroxyethyl)-N-(pyridin-2-ylmethyl)pyridazine-4-carboxamide]: the half-inhibitory concentration (IC50) was 14.7 µM. This IC50 and that of the compound before are within 1.5-fold of each other.
On to `CN(C)CCOc1ccc(CN2CCN(c3cc(-c4cc(Cl)c(O)c(Cl)c4)nnc3OCCc3ccc(Cl)cc3)CC2)cc1` [Compound 15, 2,6-dichloro-4-(6-(4-chlorophenethoxy)-5-(4-(4-(2-(dimethylamino)ethoxy)benzyl)piperazin-1-yl)pyridazin-3-yl)phenol], for which the IC50 stood at 3.05 µM.
As for `NC(=O)C1CCN(CCCOc2ccc(CN3CCN(c4cc(-c5cc(Cl)c(O)c(Cl)c5)nnc4OCCc4ccc(Cl)cc4)CC3)cc2)CC1` [Compound 21, 1-(3-(4-((4-(3-(4-chlorophenethoxy)-6-(3,5-dichloro-4-hydroxyphenyl)pyridazin-4-yl)piperazin-1-yl)methyl)phenoxy)propyl)piperidine-4-carboxamide], the figure is 7.33 µM.
Consider `O=C(c1cc(-c2cc(Cl)c(O)c(Cl)c2)nnc1OCCc1ccc(Cl)cc1)N(CCO)Cc1ccc(Cl)c(Cl)c1` [Compound 30, 3-(4-chlorophenethoxy)-6-(3,5-dichloro-4-hydroxyphenyl)-N-(3,4-dichlorobenzyl)-N-(2-hydroxyethyl)pyridazine-4-carboxamide], for which the IC50 turned out to be 19 µM. Compared with the last compound, the IC50 is about 2.6-fold higher.
`Oc1c(Cl)cc(-c2cc(N3CCN(Cc4ccc(OCCCN5CCSCC5)cc4)CC3)c(OCCc3ccc(Cl)cc3)nn2)cc1Cl` [Compound 19, 2,6-dichloro-4-(6-(4-chlorophenethoxy)-5-(4-(4-(3-thiomorpholinopropoxy)benzyl)piperazin-1-yl)pyridazin-3-yl)phenol] came in with a half-inhibitory concentration (IC50) of 17 µM.
Regarding `O=C(NCc1cc(F)cc(F)c1)c1cc(-c2cc(Cl)c(O)c(Cl)c2)nnc1OCCc1ccc(Cl)cc1` [Compound 8, 3-(4-chlorophenethoxy)-6-(3,5-dichloro-4-hydroxyphenyl)-N-(3,5-difluorobenzyl)pyridazine-4-carboxamide], the IC50 came out at 13 µM.
`COc1ccc(CN(CCO)C(=O)c2cc(-c3cc(Cl)c(O)c(Cl)c3)nnc2OCCc2ccc(Cl)cc2)cc1` [Compound 31, 3-(4-chlorophenethoxy)-6-(3,5-dichloro-4-hydroxyphenyl)-N-(2-hydroxyethyl)-N-(4-methoxybenzyl)pyridazine-4-carboxamide]: inhibition was half-maximal at 25.2 µM (IC50). This IC50 lies about 1.9-fold higher than the previous one.
On to `CCN1CCN(c2cc(-c3cc(Cl)c(O)c(Cl)c3)nnc2OCCc2ccc(Cl)cc2)CC1` [Compound 5, 2,6-dichloro-4-(6-(4-chlorophenethoxy)-5-(4-ethylpiperazin-1-yl)pyridazin-3-yl)phenol], for which the half-inhibitory concentration (IC50) is 15.8 µM.

By IC50 is commonly meant the concentration that gives 50% inhibition. A higher IC50 goes with weaker potency in that assay.
